Laboratory results as given in US20200190101A1, “Composition Containing Novel Glutamic Acid Derivative And Block Copolymer, And Use Thereof” (Nippon Kayaku Kabushiki Kaisha, priority 2015, published 2020).
Counter-ions that a name gives are not always drawn. Like-named read-outs stand apart in the source and are kept apart here.

Experiments:
[1] = test system: γ-glutamyl transpeptidase (GGT); test: γ-Glutamyl transpeptidase (GGT) enzyme recognition test; assay type: biochemical; details: 37° C.
Procedure: To 0.150 mL of this doxorubicin-bonded glutamic acid derivative (prodrug) PBS solution, 0.150 mL of a 2 U/mL GGT solution obtained by dissolving GGT (0.22 mg, 8 U/mg) (Sigma-Aldrich Company) in PBS (0.880 mL) was added, and the mixture was allowed to react at 37° C.
The reaction liquid was analyzed by HPLC, and thus the residual ratio of the doxorubicin-bonded glutamic acid derivative (prodrug) and the production ratio of doxorubicin were determined.
To 0.100 mL of the doxorubicin-bonded glutamic acid derivative PBS solution, 0.100 mL of a 2 U/mL GGT solution obtained by dissolving GGT (0.38 mg, 8 U/mg) (Sigma-Aldrich Company) in PBS (1.520 mL) was added, and the mixture was allowed to react at 37° C. […]

[2] = Phosphate buffered physiological saline (PBS) solution stability test; assay type: physicochemical; details: PBS (DMSO stock), 37° C.
Procedure: 0.148 mL of the doxorubicin-bonded glutamic acid derivative PBS solution was dissolved in 0.148 mL of a PBS solution, and the solution was allowed to react at 37° C.
PBS (0.100 mL) was added to the EHC-bonded glutamic acid derivative solution (0.100 mL), and the mixture was allowed to react at 37° C. The reaction liquid was analyzed by HPLC, and thereby the residual ratio of the EHC-bonded glutamic acid derivative was determined.
PBS (0.117 mL) was added to the camptothecin-bonded glutamic acid derivative solution (0.117 mL), and the mixture was allowed to react at 37° C. The reaction liquid was analyzed by HPLC, and thereby the residual ratio of the glutamic acid derivative was determined.
The reaction liquid was analyzed by HPLC, and thereby the residual ratio of the EHC-bonded glutamic acid derivative was determined.

[3] = test system: OS-RC-2 cells having high GGT activity; assay type: cell-based, human; details: GGsTop 10 μM
Procedure: OS-RC-2 cells were inoculated by a method similar to that of Test Example 3. […] After the cells were incubated for 6 hours, the interior of the wells was washed, and after the cells were further incubated for 3 days, the cell proliferation suppressive activity was evaluated by a method similar to that of Test Example 3.
By a similar operation, the cell proliferation suppressive activity was evaluated using doxorubicin that was not glutamic acid-derivatized, from the light absorbance of the compound.
The GGT activity dependency of the cell proliferation inhibitory activity of the EHC-bonded glutamic acid derivative according to Synthesis Example 6 was evaluated using OS-RC-2 cells having high GGT activity.
OS-RC-2 cells were inoculated by a method similar to that of Test Example 10. After the cells were incubated for one day, GGsTop (Wako Pure Chemical Industries, Ltd.), which is a GGT inhibitor, was added to the cells at a final concentration of 10 μM, and the cells were incubated for one hour. Subsequently, the EHC-bonded glutamic acid derivative according to Synthesis Example 6 was added to the cells at a final concentration of 0.0001 to 1 μM. After the cells were incubated for 6 hours, the interior of the wells was washed, and after the cells were incubated for 3 days, the cell proliferation suppressive activity was evaluated by a method similar to that of Test Example 10.
By a similar operation, the cell proliferation suppressive activity was evaluated using EHC, which is the active ingredient of Synthesis Example 6, from the light absorbance of the compound.

[4] = test system: SK-OV-3 cells having low GGT activity; test: cells; assay type: cell-based
Procedure: (§1) After the cells were incubated for 6 hours, the interior of the wells was washed, and after the cells were further incubated for 3 days, the cells were immobilized with methanol and stained using Methylene Blue dye. After staining, the dye was extracted with a 0.3% aqueous solution of hydrochloric acid was extracted, and the light absorbance at 660 nm was measured. For the light absorbance thus obtained, the cell proliferation suppressive activity was evaluated based on the reduction ratio for the light absorbance measured from cells to which the compound was not added.
(§2) By a similar operation, the cell proliferation suppressive activity was evaluated from the light absorbance, using doxorubicin that was not converted to a glutamic acid derivative. The results are shown in FIG. 1 (OS-RC-2 cells having high GGT activity) and FIG. 2 (SK-OV-3 cells having low GGT activity).
(§3) The cell proliferation inhibitory activity of the EHC-bonded glutamic acid derivative according to Synthesis Example 6 was evaluated using OS-RC-2 cells (RIKEN BioResource Center), which are known to have high GGT activity, and SK-OV-3 cells (American Type Culture Collection), which are known to have low GGT activity.
(§4) On a 96-well plate, OS-RC-2 cells having high GGT activity and SK-OV-3 cells having low GGT activity were each inoculated in an amount of 4,000 cells/well and were incubated for one day at 37° C. and 5% CO2, and then the EHC prodrug according to Synthesis Example 6 was added to the cells at a final concentration of 0.0001 to 1 μM. After the cells were incubated for 6 hours, the interior of the wells was washed, and the cells were further incubated for 3 days. After the incubation, the cells were immobilized with methanol and were stained using Methylene Blue dye. After staining, the dye was extracted with a 0.3% aqueous solution of hydrochloric acid, and the light absorbance at 660 nm was measured. The cell proliferation suppressive activity was evaluated based on the reduction ratio for the light absorbance thus obtained, with respect to the light absorbance measured from cells to which the compound was not added.
(§5) By a similar operation, EHC, which was an active ingredient of Synthesis Example 6, was used without modification, and the cell proliferation suppressive activity was evaluated from the light absorbance.

[5] = test system: OS-RC-2 cells having high GGT activity; test: cells; assay type: cell-based, human
Procedure: as §1, §2, §3, §4, §5

[6] = test system: human ovarian cancer SHIN-3 tumors; test: Test on antitumor effect of Synthesis Example 1, SHIN-3 tumors; assay type: in vivo; details: 5 mg/kg i.v., at an interval of 7 days
Procedure: By an operation similar to that of Test Example 12, human ovarian cancer SHIN-3 tumors were subcutaneously transplanted into SCID mice, and tumor engraftment was confirmed.
(§6) After the administration, the major axis (L) and the minor axis (W) of a tumor were measured using calipers at an interval of 2 to 3 days, the tumor volume was calculated by the formula: (L×W^2)/2, and the tumor volume change rate from the administration initiation day was determined.

[7] = Test on pharmacokinetics of Synthesis Example 6 (tissue AUC, OS-RC-2 tumor-bearing mice); design: species or system SCID mice; details: mouse, in vivo
Procedure: Human renal cell cancer OS-RC-2 tumors that had been subcutaneously subcultured in SCID mice were produced into blocks that measured about 2 mm on each side, and the blocks were subcutaneously transplanted into SCID mice using a trocar.
At time points of 5 minutes, 1 hour, 3 hours, and 6 hours after the administration, various tissues such as blood plasma, liver, bone marrow, and tumor were collected under ether anesthesia. The drug concentrations of EHC as an active drug of Synthesis Example 6, the unchanged drug of Synthesis Example 6, and the unchanged drug of CPT-11 in the various tissues were quantitatively analyzed by a LC-MS/MS method under the following measuring instrument and conditions.
From the concentrations of EHC, the EHC-bonded glutamic acid derivative according to Synthesis Example 6, and CPT-11 in the tissues at various time points, the AUC0-6 hr (μg·hr/mL or g) values of the various components up to 6 hours after the initiation of administration were calculated. As the prodrug activation rates of Synthesis Example 6 and CPT-11 in the various tissues, the AUC0-6 hr ratios of the active drug with respect to the unchanged drug (AUCEHC/AUCSynthesis Example 6 unchanged drug, and AUCEHC/AUCCPT-11) were determined.

[8] = test system: human renal cell cancer OS-RC-2; test: Test on antitumor effect of Synthesis Example 6, OS-RC-2; assay type: in vivo, SCID mice; details: three times at an interval of 4 days
Procedure: By an operation similar to that of Test Example 15, to those mice having human renal cell cancer OS-RC-2 transplanted thereinto, the EHC-bonded glutamic acid derivative of Synthesis Example 6 was intravenously administered through the caudal vein, on the 17th day after tumor transplantation, at a dose of 20, 40, or 80 mg/kg three times in total at an interval of 4 days.
as §6

[9] = assay type: in vitro ADME; details: 24 h, 0.0856 mg/mL
Procedure: Mouse blood plasma (0.180 mL) was added to a 0.856 mg/mL DMSO solution of the EHC-bonded glutamic acid derivative of Synthesis Example 6 (0.020 mL), and the mixture was allowed to react at 37° C.
The reaction liquid was analyzed by HPLC, and thereby the residual ratio of the EHC-bonded glutamic acid derivative was determined. 94% of the EHC-bonded glutamic acid derivative prodrug remained after 24 hours.

[10] = after 6 hours, 2 mM PBS solution + 2 U/mL GGT solution

## COc1cccc2c1C(=O)c1c(O)c3c(c(O)c1C2=O)C[C@@](O)(C(=O)CO)C[C@@H]3O[C@H]1C[C@H](NC(=O)CC[C@H](N)C(=O)O)[C@H](O)[C@H](C)O1 [Comparative Example 1, (S)-(4-amino-4-carboxybutanamido)doxorubicin, reference compound]
[1]; [10]
  Residual ratio of the glutamic acid derivative: 93%

## CCc1c2c(nc3ccc(OC(=O)OCc4ccc(NC(=O)CC[C@H](N)C(=O)O)cc4)cc13)-c1cc3c(c(=O)n1C2)COC(=O)[C@]3(O)CC [Synthesis Example 2, (((4-((S)-4-amino-4-carboxybutanamido)benzyl)oxy)carbonyl)-10-oxy-7-ethylcamptothecin]
[2]; after 3.5 hours
  Residual ratio of the glutamic acid derivative in PBS: 52%

## COc1cccc2c1C(=O)c1c(O)c3c(c(O)c1C2=O)C[C@@](O)(C(=O)CO)C[C@@H]3O[C@H]1C[C@H](N)[C@H](O)[C@H](C)O1 [doxorubicin, reference compound]
[3]; compound 0.039 to 10 μM
  Effect of GGT inhibitor on cell proliferation suppressive activity: did not affect the cell proliferation suppressive activity
[4]; Homo sapiens, SK-OV-3 cells, 10 μM, 6 hours exposure then 3 days incubation, read-out: Cell proliferation inhibitory activity
  inhibition at 10 µM: 77%
[5]; Homo sapiens, OS-RC-2 cells, 10 μM, 6 hours exposure then 3 days incubation, read-out: Cell proliferation inhibitory activity
  inhibition at 10 µM: 77%

## CCc1c2c(nc3ccc(O)cc13)-c1cc3c(c(=O)n1C2)COC(=O)[C@]3(O)CC [EHC, 7-ethyl-10-hydroxycamptothecin, reference compound]
[3]; compound 0.0001 to 1 μM
  Effect of GGT inhibitor on cell proliferation suppressive activity: did not affect the cell proliferation suppressive activity
[4]; SK-OV-3 cells, 0.01 μM, 6 hours exposure then 3 days incubation
  Cell proliferation inhibitory activity: 27.7%
[5]; OS-RC-2 cells, 0.01 μM, 6 hours exposure then 3 days incubation
  Cell proliferation inhibitory activity: 26%

## CC[C@@]1(O)C(=O)OCc2c1cc1n(c2=O)Cc2cc3c(NC(=O)CC[C@H](N)C(=O)O)cccc3nc2-1 [Comparative Example 2, 9-((S)-4-amino-4-carboxybutanamido)camptothecin, reference compound]
[1]; [10]
  Residual ratio of the glutamic acid derivative: 99%

## COc1cccc2c1C(=O)c1c(O)c3c(c(O)c1C2=O)C[C@@](O)(C(=O)CO)C[C@@H]3O[C@H]1C[C@H](N)[C@H](O)[C@H](C)O1 [doxorubicin hydrochloride, reference compound]
[6]
  Toxicity (death of mice): the mice died after the second administration due to toxicity

## CCc1c2c(nc3ccc(OCc4ccc(NC(=O)CC[C@H](N)C(=O)O)cc4)cc13)-c1cc3c(c(=O)n1C2)COC(=O)[C@]3(O)CC [Synthesis Example 6, 10-(4-((S)-4-amino-4-carboxybutanamido)benzyloxy)-7-ethylcamptothecin ditrifluoroacetate]
[7]
  Activation rate AUCEHC/AUC unchanged drug: 0.03-0.16 times
[8]; 80 mg/kg-administered group, i.v.
  Antitumor effect (relative tumor volume): noticeable tumor regression effect
[8]; 20, 40, or 80 mg/kg i.v.
  Antitumor effect (relative tumor volume): dose-dependent antitumor effect
[3]; compound 0.0001 to 1 μM
  Effect of GGT inhibitor on cell proliferation suppressive activity: inhibited the activity
[4]; Homo sapiens, SK-OV-3, read-out: Cell proliferation inhibitory activity
  inhibition at 0.01 µM: 1.3%
[1]; 0.34 mg/mL DMSO solution diluted with PBS + 0.227 mg/mL GGT solution
  Disappearance of the glutamic acid derivative and production of EHC by GGT: rapidly disappeared in one hour of the reaction and produced EHC
[5]; Homo sapiens, OS-RC-2, read-out: Cell proliferation inhibitory activity
  inhibition at 0.01 µM: 25%
[2]; after 24 hours
  Residual ratio of the glutamic acid derivative in PBS: 90%
[9]
  Residual ratio of the glutamic acid derivative in mouse blood plasma: 94%

## COc1cccc2c1C(=O)c1c(O)c3c(c(O)c1C2=O)CC(O)(C(=O)CO)CC3OC1CC(NC(=O)OCc2ccc(NC(=O)CCC(N)C(=O)O)cc2)C(O)C(C)O1 [Synthesis Example 4, (((4-((S)-4-amino-4-carboxybutanamido)benzyl)oxy)carbonyl)epirubicin]
[1]; [10]
  Residual ratio of the glutamic acid derivative: 5%

## CC[C@@]1(OC(=O)OCc2ccc(NC(=O)CC[C@H](N)C(=O)O)cc2)C(=O)OCc2c1cc1n(c2=O)Cc2cc3ccccc3nc2-1 [Synthesis Example 3, (((4-((S)-4-amino-4-carboxybutanamido)benzyl)oxy)carbonyl)camptothecin]
[2]; after 3 hours
  Residual ratio of the glutamic acid derivative in PBS: 74%

## N[C@@H](CCC(=O)Nc1ccc(COC(=O)Nc2ccn([C@@H]3O[C@H](CO)C(O)[C@H]3O)c(=O)n2)cc1)C(=O)O (stereo partly drawn) [Synthesis Example 5, (((4-((S)-4-amino-4-carboxybutanamido)benzyl)oxy)carbonyl)cytarabine]
[1]; after 6.5 hours, 1 mM PBS solution + 2 U/mL GGT solution
  Residual ratio of the glutamic acid derivative: 34%
